Experimental data from patent US20200246298A1, “Composition for Preventing or Treating Asthma Comprising Fatty Acid as Active Ingredient” (Dongshin University Industry-Academy Cooperation, priority 2019, published 2020).

Assays:
mucus = test: PAS staining of lung tissue, OVA-induced asthma; type: in vivo, BALB/c mice; conditions: 5 days, vs OVA-sensitized group
Description: In test groups, the animals determined to be healthy during the acclimation period were ranked by measuring the weight, and were randomly grouped so that the average weight of each group was uniform. The animals were divided into a total of 9 groups: a control group; a control group with OVA-induced asthma; a positive control group; groups administered with each of 50 mg/kg, 125 mg/kg and 250 mg/kg of oleic acid; and groups administered with each of 5 mg/kg, 25 mg/kg and 50 mg/kg of palmitic acid. The animals were sensitized via intraperitoneal injection of OVA once a week for 2 weeks after the acclimation period. During 5 days of week 3, dexamethasone (DEX) and the test substances oleic acid and palmitic acid were orally administered in the morning and 5% OVA solution was inhaled in the afternoon. The test substance was orally administered in an amount of 28 μL per weight (g) of the experimental animal, and OVA for sensitization was administered in a constant amount regardless of the weight. After 5 days of administration, autopsy was performed the next day.
Storage of tissue: ½ of the autopsy tissue was frozen quickly in liquid nitrogen, stored in an ultralow-temperature freezer or liquid nitrogen container (about −75 ° C.), and used for PCR/Western blotting, and the remaining ½ was stored in 10% formalin solution and used for histopathology and immunohistochemistry (IHC). […]

[1] = tested on: WBC cells, eosinophils, neutrophils, lymphocytes and monocytes in BALF; test: Blood cell analysis in BALF of mice with OVA-induced asthma; type: in vivo, BALB/c mice; conditions: for proliferation of leukocytes, neutrophils, lymphocytes and monocytes in BALF and serum: summary statement, ovalbumin-induced asthma
Description: This experiment was performed in order to examine the anti-asthmatic effects of fatty acids after inducing asthma in experimental animals by ovalbumin (OVA). Experimental animals used in the experiment were chosen because of the accumulated abundant test data and their ease of analysis and evaluation of experimental results. BALB/c mice, which are specific pathogen […] (SPF) mice, were chosen based on the related literature. Experimental animals were provided in the minimum number so as to be able to analyze experimental results and were divided into a total of 9 groups according to the substance to be administered, and each group consisted of 8 animals. […] In test groups, the animals determined to be healthy during the acclimation period were ranked by measuring the weight, and were randomly grouped so that the average weight of each group was uniform. The animals were divided into a total of 9 groups: a control group; a control group with OVA-induced asthma; a positive control group; groups administered with each of 50 mg/kg, 125 mg/kg and 250 mg/kg of oleic acid; and groups administered with each of 5 mg/kg, 25 mg/kg and 50 mg/kg of palmitic acid. The animals were sensitized via intraperitoneal injection of OVA once a week for 2 weeks after the acclimation period. During 5 days of week 3, dexamethasone (DEX) and the test substances oleic acid and palmitic acid were orally administered in the morning and 5% OVA solution was inhaled in the afternoon. The test substance was orally administered in an amount of 28 μL per weight (g) of the experimental animal, and OVA for sensitization was administered in a constant amount regardless of the weight. After 5 days of administration, autopsy was performed the next day. Intraperitoneal administration: based on the related literature, 20 μg OVA+1 mg aluminum hydroxide+500 μL/head of normal saline were administered. For a total of 50 animals to be administered, 1000 μg OVA+50 mg aluminum hydroxide+25 mL of normal saline were prepared. The animals were sensitized by intraperitoneal injection once a week for 2 weeks, and injected with the test substance by a 1 mL syringe. Oral administration: the control group and the asthma-induced control group were administered with saline, and oleic acid and palmitic acid were used in dissolved in saline at various concentrations. Dexamethasone was dissolved in saline by stirring and prepared according to a final dose. All preparations were prepared on the day of administration. Inhalation: a solution containing 1 g OVA+20 mL normal saline (5% OVA solution) was prepared, stirred and administered. A forced inhalation was performed using a nebulizer (OMRON, NE-U17) for 5 days, and systemic exposure was performed using an inhalation exposure chamber. Collection of bronchoalveolar lavage fluid (BALF): the anesthetized animal tissue was opened with tweezers to secure the trachea, and then a surgical thread was placed underneath and loosely tied, and the trachea was slightly cut with scissors. Then, 0.2 mL of PBS was placed into a syringe with the needle removed, and the syringe was inserted into a sonde and then injected into the trachea. After injection, BALF was collected by injecting PBS again. 0.2 mL of BALF was collected three times in the same manner. The first BALF was placed in tube No. 1, the second and third BALFs were placed in tube No. 2. The blood cell analysis in BALF were performed (Lee et al., 2017; Bang et al., 2015). One day after the final treatment, the mice were anesthetized with intraperitoneal injections of 50 mg/kg Zoletin (Virbac, Fort Worth, Tex., USA), and their tracheas were cannulated with disposable animal feeding needles. Lavages were performed with three 0.4 ml aliquots of cold phosphate-buffered saline (PBS). The BALF samples were collected and immediately centrifuged at 3000 rpm for 5 minutes at 4° C. (Sorvall Legend Micro 17R, Thermo Fisher Scientific, Inc. Marietta, Ohio, USA). […]

| Compound | mucus (PAS staining) (mucus; oleic acid 50, 125, 250 mg/kg oral, FIG. 17) | number of differential cells in BALF ([1]; oleic acid 50, 125, 250 mg/kg oral, 5 days, FIG. 1) | number of WBC cells ([1]; oleic acid 50, 125, 250 mg/kg oral, 5 days, vs OVA-sensitized group, FIG. 2) | number of eosinophils (EOs) ([1]; oleic acid 50, 125, 250 mg/kg oral, 5 days, vs OVA-sensitized group, FIG. 3) | number of neutrophils (NEs) ([1]; oleic acid 50, 125, 250 mg/kg oral, 5 days, vs OVA-sensitized group, FIG. 4) | number of lymphocytes (LYs) ([1]; oleic acid 50, 125, 250 mg/kg oral, 5 days, vs OVA-sensitized group, FIG. 5) | number of monocytes (MOs) ([1]; oleic acid 50, 125, 250 mg/kg oral, 5 days, vs OVA-sensitized group, FIG. 6) | proliferation of leukocytes, neutrophils, lymphocytes and monocytes in BALF and serum [1] | mucus (PAS staining) (mucus; palmitic acid 5, 25, 50 mg/kg oral, FIG. 18) | number of differential cells in BALF ([1]; palmitic acid 5, 25, 50 mg/kg oral, 5 days, FIG. 7) | number of WBC cells ([1]; palmitic acid 5, 25, 50 mg/kg oral, 5 days, vs OVA-sensitized group, FIG. 8) | number of neutrophils (NEs) ([1]; palmitic acid 5, 25, 50 mg/kg oral, 5 days, vs OVA-sensitized group, FIG. 10) | number of monocytes (MOs) ([1]; palmitic acid 5, 25, 50 mg/kg oral, 5 days, vs OVA-sensitized group, FIG. 12) |
| --- | --- | --- | --- | --- | --- | --- | --- | --- | --- | --- | --- | --- | --- |
| CCCCCCCC/C=C\CCCCCCCC(=O)O [oleic acid] | dose-dependently decreased | dose-dependently decreased | dose-dependently decreased | dose-dependently decreased | dose-dependently decreased | dose-dependently decreased | dose-dependently decreased | inhibit | – | – | – | – | – |
| CCCCCCCCCCCCCCCC(=O)O [palmitic acid] | – | – | – | – | – | – | – | inhibit | dose-dependently decreased | dose-dependently decreased | dose-dependently decreased | dose-dependently decreased | dose-dependently decreased |
